#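 Cultured in 96-well plates, cells were exposed to test compound for 48 hours across five concentrations. Definition used: TGI = concentration required for complete inhibition of growth.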
# Assays:
# Test in all cases: inhibition of tumour cell growth, NCI panel, 48 h
# PC-3 prostate = system: PC-3 prostate
# SN12C renal = system: SN12C renal
# T-47D breast = system: T-47D breast
# MDA-MB-435 = system: MDA-MB-435
# EKVX NSCLC = system: EKVX NSCLC
# IGROV1 ovarian = system: IGROV1 ovarian
# OVCAR-5 ovarian = system: OVCAR-5 ovarian
# MDA-N = system: MDA-N
# RPMI-8226 leukemia = system: RPMI-8226 leukemia
# HOP-92 NSCLC = system: HOP-92 NSCLC
# HCT-116 colon = system: HCT-116 colon
# HT29 colon = system: HT29 colon
# CCRF-CEM leukemia = system: CCRF-CEM leukemia
# LOX IMVI melanoma = system: LOX IMVI melanoma
# MCF7 breast = system: MCF7 breast
# SW-620 colon = system: SW-620 colon
# SK-MEL-5 melanoma = system: SK-MEL-5 melanoma
# OVCAR-8 ovarian = system: OVCAR-8 ovarian
# A549 NSCLC = system: A549 NSCLC
# UO-31 renal = system: UO-31 renal
# NCI-H226 lung = system: NCI-H226 lung
# HOP-62 NSCLC = system: HOP-62 NSCLC
# BT-549 breast = system: BT-549 breast
# MALME-3M melanoma = system: MALME-3M melanoma
# SF-268 CNS = system: SF-268 CNS
# ACHN renal = system: ACHN renal
# SF-295 CNS = system: SF-295 CNS
# A498 renal = system: A498 renal
# 786-0 renal = system: 786-0 renal
# CAKI-1 renal = system: CAKI-1 renal
# RXF 393 renal = system: RXF 393 renal
# HS 578T breast = system: HS 578T breast
# SR leukemia = system: SR leukemia
# HCT-15 colon = system: HCT-15 colon
# MDA-MB-231 breast = system: MDA-MB-231 breast
# NCI/ADR-RES ovarian = system: NCI/ADR-RES ovarian
# COLO 205 colon = system: COLO 205 colon
# SK-OV-3 ovarian = system: SK-OV-3 ovarian
# SNB-19 CNS = system: SNB-19 CNS
# DU-145 prostate = system: DU-145 prostate
# TK-10 renal = system: TK-10 renal
# SF-539 CNS = system: SF-539 CNS
# NCI-H23 lung = system: NCI-H23 lung
# M14 melanoma = system: M14 melanoma
# MOLT-4 leukemia = system: MOLT-4 leukemia
# KM12 colon = system: KM12 colon
# U251 CNS = system: U251 CNS
# UACC-257 melanoma = system: UACC-257 melanoma
# OVCAR-4 ovarian = system: OVCAR-4 ovarian
# UACC-62 melanoma = system: UACC-62 melanoma
# HL-60(TB) leukemia = system: HL-60(TB) leukemia
# NCI-H522 lung = system: NCI-H522 lung
# SK-MEL-28 melanoma = system: SK-MEL-28 melanoma
# OVCAR-3 ovarian = system: OVCAR-3 ovarian
# NCI-H460 lung = system: NCI-H460 lung
# K-562 leukemia = system: K-562 leukemia
# HCC-2998 colon = system: HCC-2998 colon
# SNB-75 CNS = system: SNB-75 CNS
# SK-MEL-2 melanoma = system: SK-MEL-2 melanoma
smiles,measurement,setting,value
CC1(C)OCC(C2OC3OC(C)(C)OC3C2N)O1 (stereo not given),TGI,PC-3 prostate,> 100 µM
same,TGI,SN12C renal,> 100 µM
same,TGI,T-47D breast,> 100 µM
same,TGI,MDA-MB-435,> 100 µM
same,TGI,EKVX NSCLC,> 100 µM
same,TGI,IGROV1 ovarian,> 100 µM
same,TGI,OVCAR-5 ovarian,> 100 µM
same,TGI,MDA-N,> 100 µM
same,TGI,RPMI-8226 leukemia,> 100 µM
same,TGI,HOP-92 NSCLC,> 100 µM
same,TGI,HCT-116 colon,> 100 µM
same,TGI,HT29 colon,> 100 µM
same,TGI,CCRF-CEM leukemia,> 100 µM
same,TGI,LOX IMVI melanoma,> 100 µM
same,TGI,MCF7 breast,> 100 µM
same,TGI,SW-620 colon,> 100 µM
same,TGI,SK-MEL-5 melanoma,> 100 µM
same,TGI,OVCAR-8 ovarian,> 100 µM
same,TGI,A549 NSCLC,> 100 µM
same,TGI,UO-31 renal,> 100 µM
same,TGI,NCI-H226 lung,> 100 µM
same,TGI,HOP-62 NSCLC,> 100 µM
same,TGI,BT-549 breast,> 100 µM
same,TGI,MALME-3M melanoma,> 100 µM
same,TGI,SF-268 CNS,> 100 µM
same,TGI,ACHN renal,> 100 µM
same,TGI,SF-295 CNS,> 100 µM
same,TGI,A498 renal,> 100 µM
same,TGI,786-0 renal,> 100 µM
same,TGI,CAKI-1 renal,> 100 µM
same,TGI,RXF 393 renal,> 100 µM
same,TGI,HS 578T breast,> 100 µM
same,TGI,SR leukemia,> 100 µM
same,TGI,HCT-15 colon,> 100 µM
same,TGI,MDA-MB-231 breast,> 100 µM
same,TGI,NCI/ADR-RES ovarian,> 100 µM
same,TGI,COLO 205 colon,> 100 µM
same,TGI,SK-OV-3 ovarian,> 100 µM
same,TGI,SNB-19 CNS,> 100 µM
same,TGI,DU-145 prostate,> 100 µM
same,TGI,TK-10 renal,> 100 µM
same,TGI,SF-539 CNS,> 100 µM
same,TGI,NCI-H23 lung,> 100 µM
same,TGI,M14 melanoma,> 100 µM
same,TGI,MOLT-4 leukemia,> 100 µM
same,TGI,KM12 colon,> 100 µM
same,TGI,U251 CNS,> 100 µM
same,TGI,UACC-257 melanoma,> 100 µM
same,TGI,OVCAR-4 ovarian,> 100 µM
same,TGI,UACC-62 melanoma,> 100 µM
same,TGI,HL-60(TB) leukemia,> 100 µM
same,TGI,NCI-H522 lung,> 100 µM
same,TGI,SK-MEL-28 melanoma,> 100 µM
same,TGI,OVCAR-3 ovarian,> 100 µM
same,TGI,NCI-H460 lung,> 100 µM
same,TGI,K-562 leukemia,> 100 µM
same,TGI,HCC-2998 colon,> 100 µM
same,TGI,SNB-75 CNS,> 100 µM
same,TGI,SK-MEL-2 melanoma,> 100 µM
COC(=O)c1oc([N+](=O)[O-])c(Cl)c1Cl,TGI,PC-3 prostate,15.1 µM
same,TGI,SN12C renal,14.2 µM
same,TGI,T-47D breast,13.1 µM
same,TGI,MDA-MB-435,14.6 µM
same,TGI,EKVX NSCLC,36.8 µM
same,TGI,IGROV1 ovarian,14.8 µM
same,TGI,OVCAR-5 ovarian,14.8 µM
same,TGI,MDA-N,14.9 µM
same,TGI,RPMI-8226 leukemia,15.8 µM
same,TGI,HOP-92 NSCLC,39.3 µM
same,TGI,HCT-116 colon,12.9 µM
same,TGI,HT29 colon,41.4 µM
same,TGI,CCRF-CEM leukemia,7.35 µM
same,TGI,LOX IMVI melanoma,13.7 µM
same,TGI,MCF7 breast,6.27 µM
same,TGI,SW-620 colon,10 µM
same,TGI,SK-MEL-5 melanoma,17.7 µM
same,TGI,OVCAR-8 ovarian,30.4 µM
same,TGI,A549 NSCLC,37.7 µM
same,TGI,UO-31 renal,14.5 µM
same,TGI,NCI-H226 lung,42.9 µM
same,TGI,HOP-62 NSCLC,17 µM
same,TGI,BT-549 breast,14.8 µM
same,TGI,MALME-3M melanoma,14.3 µM
same,TGI,SF-268 CNS,17.5 µM
same,TGI,ACHN renal,15.6 µM
same,TGI,SF-295 CNS,24.7 µM
same,TGI,A498 renal,23 µM
same,TGI,786-0 renal,16.4 µM
same,TGI,CAKI-1 renal,7.4 µM
same,TGI,RXF 393 renal,28 µM
same,TGI,HS 578T breast,29.3 µM
same,TGI,SR leukemia,4.89 µM
same,TGI,HCT-15 colon,18.2 µM
same,TGI,MDA-MB-231 breast,14 µM
same,TGI,NCI/ADR-RES ovarian,36.5 µM
same,TGI,COLO 205 colon,8.61 µM
same,TGI,SK-OV-3 ovarian,33.2 µM
same,TGI,SNB-19 CNS,35.4 µM
same,TGI,DU-145 prostate,32.5 µM
same,TGI,TK-10 renal,14 µM
same,TGI,SF-539 CNS,14.4 µM
same,TGI,NCI-H23 lung,17.4 µM
same,TGI,M14 melanoma,13.8 µM
same,TGI,MOLT-4 leukemia,4.93 µM
same,TGI,KM12 colon,14.5 µM
same,TGI,U251 CNS,15.5 µM
same,TGI,UACC-257 melanoma,15.2 µM
same,TGI,OVCAR-4 ovarian,17.4 µM
same,TGI,UACC-62 melanoma,15.7 µM
same,TGI,HL-60(TB) leukemia,3.24 µM
same,TGI,NCI-H522 lung,3.33 µM
same,TGI,SK-MEL-28 melanoma,15.8 µM
same,TGI,OVCAR-3 ovarian,11.4 µM
same,TGI,NCI-H460 lung,34.6 µM
same,TGI,K-562 leukemia,6.48 µM
same,TGI,HCC-2998 colon,35 µM
same,TGI,SNB-75 CNS,20.8 µM
same,TGI,SK-MEL-2 melanoma,31.6 µM
COc1ccc(/C=C2\N=C(N/N=C\C(O)C(O)C(O)C(O)CO)NC2=O)cc1 (stereo not given),TGI,PC-3 prostate,69.5 µM
same,TGI,SN12C renal,52.2 µM
same,TGI,T-47D breast,27.7 µM
same,TGI,MDA-MB-435,91.1 µM
same,TGI,EKVX NSCLC,> 100 µM
same,TGI,IGROV1 ovarian,> 100 µM
same,TGI,OVCAR-5 ovarian,> 100 µM
same,TGI,MDA-N,39.6 µM
same,TGI,RPMI-8226 leukemia,> 100 µM
same,TGI,HOP-92 NSCLC,33.9 µM
same,TGI,HCT-116 colon,> 100 µM
same,TGI,HT29 colon,> 100 µM
same,TGI,CCRF-CEM leukemia,> 100 µM
same,TGI,LOX IMVI melanoma,> 100 µM
same,TGI,MCF7 breast,> 100 µM
same,TGI,SW-620 colon,> 100 µM
same,TGI,SK-MEL-5 melanoma,> 100 µM
same,TGI,OVCAR-8 ovarian,88.3 µM
same,TGI,A549 NSCLC,> 100 µM
same,TGI,UO-31 renal,> 100 µM
same,TGI,NCI-H226 lung,> 100 µM
same,TGI,HOP-62 NSCLC,54.9 µM
same,TGI,BT-549 breast,50.6 µM
same,TGI,MALME-3M melanoma,43.4 µM
same,TGI,SF-268 CNS,63.2 µM
same,TGI,ACHN renal,> 100 µM
same,TGI,SF-295 CNS,> 100 µM
same,TGI,A498 renal,93 µM
same,TGI,786-0 renal,> 100 µM
same,TGI,CAKI-1 renal,> 100 µM
same,TGI,RXF 393 renal,> 100 µM
same,TGI,HS 578T breast,71.7 µM
same,TGI,SR leukemia,> 100 µM
same,TGI,HCT-15 colon,> 100 µM
same,TGI,MDA-MB-231 breast,88.5 µM
same,TGI,NCI/ADR-RES ovarian,> 100 µM
same,TGI,COLO 205 colon,> 100 µM
same,TGI,SK-OV-3 ovarian,50.3 µM
same,TGI,DU-145 prostate,> 100 µM
same,TGI,TK-10 renal,> 100 µM
same,TGI,SF-539 CNS,38.5 µM
same,TGI,NCI-H23 lung,54 µM
same,TGI,M14 melanoma,35.7 µM
same,TGI,MOLT-4 leukemia,62.3 µM
same,TGI,KM12 colon,> 100 µM
same,TGI,U251 CNS,42.7 µM
same,TGI,UACC-257 melanoma,> 100 µM
same,TGI,OVCAR-4 ovarian,53 µM
same,TGI,HL-60(TB) leukemia,> 100 µM
same,TGI,NCI-H522 lung,46 µM
same,TGI,SK-MEL-28 melanoma,> 100 µM
same,TGI,OVCAR-3 ovarian,33.7 µM
same,TGI,NCI-H460 lung,> 100 µM
same,TGI,K-562 leukemia,> 100 µM
same,TGI,HCC-2998 colon,> 100 µM
same,TGI,SNB-75 CNS,54.3 µM
same,TGI,SK-MEL-2 melanoma,36.6 µM
